Laboratory results published in patent US11000033B2, “Ketone or oxime compound, and herbicide” (NISSAN CHEMICAL CORPORATION, priority 2014, dated 2021).

Experiments:
Scirpus juncoides = assay: Test Example 1: herbicidal activity, application before weed generation in submerged conditions (symbol B); assay type: in vivo; details: application herbicide amount 320 g/ha
Method in brief: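 Weed control was rated three weeks after treatment on a 0–5 scale, from 5% or lower up to 90% or more. Pre-emergence water-surface application of diluted emulsion at a predetermined rate was made on the day of sowing, in flooded (4 cm water) pots containing rice seedlings, kept at 25–30 °C under glass.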

[1] = system: Echinochloa crus-galli var. crus-galli; assay: Test Example 4: herbicidal effect by soil treatment (symbol H); assay type: in vivo; details: application herbicide amount 320 g/ha
Method in brief: (§1)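 Seeds were sown in sterilized diluvial soil, covered with about 1.5 cm of soil, and the soil surface was sprayed with a water-diluted emulsion of the compound at a predetermined rate. Plants grew in a greenhouse at 25° C. to 30° C.; effects were scored visually 3 weeks after application.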

Abutilon theophrasti = assay: Test Example 4: herbicidal effect by soil treatment (symbol M); assay type: in vivo; details: application herbicide amount 320 g/ha
Method in brief: as §1

Chenopodium album = assay: Test Example 4: herbicidal effect by soil treatment (symbol O); assay type: in vivo; details: application herbicide amount 320 g/ha
Method in brief: as §1

Galium spurium = assay: Test Example 4: herbicidal effect by soil treatment (symbol Q); assay type: in vivo; details: application herbicide amount 320 g/ha
Method in brief: as §1

Lolium multiflorum Lam. = assay: Test Example 5: herbicidal effect by foliage application, plastic box (symbol K); assay type: in vivo; details: 320 g/ha, 3 weeks after application
Method in brief: (§2)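 Post-emergence spray; diluvial soil (sterilized), ~1.5 cm seed cover; greenhouse 25–30° C; 14-day-old plants; water-diluted emulsion at predetermined dose; visual score at 3 wk post-treatment.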

Apera spica-venti = assay: Test Example 5: herbicidal effect by foliage application, plastic box (symbol L); assay type: in vivo; details: 320 g/ha, 3 weeks after application
Method in brief: as §2

Amaranthus retroflexus = assay: Test Example 5: herbicidal effect by foliage application, plastic box (symbol N); assay type: in vivo; details: 320 g/ha, 3 weeks after application
Method in brief: as §2

rice plant = assay: Test Example 5: effect on crop by foliage application, plastic box (symbol b); assay type: in vivo; details: 320 g/ha, 3 weeks after application
Method in brief: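 In a plastic box 7 cm deep filled with sterilized diluvial soil, seeds of crops and weeds such as Digitaria ciliaris, Avena fatua and Amaranthus retroflexus are sown in spots and covered with about 1.5 cm of soil before greenhouse growth at 25–30° C.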

Compound: CCC(C)C(CC1CC(O)=C(c2c(C)cc(C)cc2C)C1=O)=NOC (stereo not shown) [1-066]
- Herbicidal effect grade, B: Scirpus juncoides (Scirpus juncoides): 0 (Herbicidal ratio of 5% or lower (almost no effect))
- H (Echinochloa crus-galli var. crus-galli) herbicidal effect grade [1]: 5 (Herbicidal ratio of 90% or more (almost completely withered))
- M (Abutilon theophrasti) herbicidal effect grade (Abutilon theophrasti): 0 (Herbicidal ratio of 5% or lower (almost no effect))
- O (Chenopodium album) herbicidal effect grade (Chenopodium album): 0 (Herbicidal ratio of 5% or lower (almost no effect))
- Q (Galium spurium) herbicidal effect grade (Galium spurium): 0 (Herbicidal ratio of 5% or lower (almost no effect))
- K: Lolium multiflorum Lam., herbicidal effect grade (Lolium multiflorum Lam.): 5 (Herbicidal ratio of 90% or more (almost completely withered))
- L: Apera spica-venti, herbicidal effect grade (Apera spica-venti): 4 (Herbicidal ratio of 70% or higher and lower than 90%)
- N: Amaranthus retroflexus, herbicidal effect grade (Amaranthus retroflexus): 0 (Herbicidal ratio of 5% or lower (almost no effect))
- b: directly sowed rice plant, effect on crop grade (rice plant): 5 (Herbicidal ratio of 90% or more (almost completely withered))
- melting point: 154 to 156 °C
